# Laboratory results: patent publication US7494996B2 (priority 2000, dated 2009)
# Assays:
# Pyricularia oryzae = assay: whole plant or invertebrate; assay type: in vivo; conditions: 100 is total disease control, 0 is no disease control; for Rice Blast (RB) protectant fungicide data, percent control: 300 g/ha, greenhouse; for pest or weed control at 300 g/ha: Pyricularia oryzae, topical, 144 h, read-out: Rice Blast (RB) protectant fungicide data, percent control, protectant, 300 g/ha, greenhouse
# Sphaerotheca fuliginea = assay: Cucumber Powdery Mildew (CPM) protectant test in the greenhouse; assay type: in vivo; conditions: 100 is total disease control, 0 is no disease control; for Cucumber Powdery Mildew (CPM) protectant fungicide data, percent control: 300 g/ha; for pest or weed control at 300 g/ha: Podosphaera fuliginea, topical, 168 h, read-out: Cucumber Powdery Mildew (CPM) protectant fungicide data, percent control
# Procedure: Plants used in the fungicide testing program were grown in 2-¼-inch (5.7-cm). square pots containing RediEarth propagation substrate. The plants were raised under greenhouse conditions. The rice plants were 12-days-old and cucumbers were 13-days-old at the time of spraying with chemical treatments.
# The sample of the experimental chemical was weighed and dissolved in an acetone-methanol-water solution (A/M/W at 1:1:2 ratio by volume).
# After sprayer calibration, the test solutions were poured into the fungicide sprayer. The fungicide sprayer contains three spray nozzles, located approximately 10 cm above and to the sides of the plants. The spray produced by the nozzles results in uniform coverage of both the upper and lower parts of the plant leaves. After spraying, the treated plants were placed in a drying chamber for 4 hours, prior to sorting.
# Cucumber Powdery Mildew (CPM), caused by the fungus Sphaerotheca fuliginea, was maintained on large cucumber plants. For inoculum preparation, five to eight leaves depending on size, completely covered with powdery mildew spores, were collected. The leaves were placed in a glass jar and covered with 500 ml of water, containing 5 drops of Tween-80. The material was filtered through two layers of cheesecloth to remove leaf fragments. The spore count was adjusted to 2×10^5 spores per ml.
# Cucumber plants, cv. “Bush Champion,” were used for this test. The plants were thinned to one per pot after the cotyledons were fully developed. Two days before the test, the small leaves and meristem region were removed, leaving only the cotyledons and one large true leaf.
# The protectant tests required that the cucumber plants be inoculated 1 day after spraying with the chemical treatment. The plants were inoculated with a hand-held spray bottle with the suspension of fungal spores. The leaves were lightly misted on the upper surface from two different spray directions. Disease development occurred in the greenhouse.
# After seven days, the plants were evaluated for percent of disease control. The results are reported as percent control; 100 is total disease control, 0 is no disease control.
smiles,measurement,setting,value
COC(=O)N1CC(=O)N(CC(F)(F)F)N=C1c1cc(Cl)cc(Cl)c1 [Compound 71],"Rice Blast (RB) protectant fungicide data, percent control",Pyricularia oryzae,75 percent control
same,"Cucumber Powdery Mildew (CPM) protectant fungicide data, percent control",Sphaerotheca fuliginea,50 percent control
C#CCN1CC(=O)N(CCCC)N=C1c1ccc(Cl)c(Cl)c1 [Compound 168],"Rice Blast (RB) protectant fungicide data, percent control",Pyricularia oryzae,95 percent control
same,"Cucumber Powdery Mildew (CPM) protectant fungicide data, percent control",Sphaerotheca fuliginea,50 percent control
COc1cccc(C2=NN(CC(F)(F)F)C(=O)CN2)c1 [Compound 46],"Rice Blast (RB) protectant fungicide data, percent control",Pyricularia oryzae,80 percent control
same,"Cucumber Powdery Mildew (CPM) protectant fungicide data, percent control",Sphaerotheca fuliginea,0 percent control
CCOC(=O)N1C(c2cc(Cl)cc(Cl)c2)=NN(CC(F)(F)F)C(=O)C1OC (stereo not drawn) [Compound 214],"Rice Blast (RB) protectant fungicide data, percent control",Pyricularia oryzae,50 percent control
same,"Cucumber Powdery Mildew (CPM) protectant fungicide data, percent control",Sphaerotheca fuliginea,85 percent control
CCCCN1N=C(c2cc(Br)c(OC)c(Br)c2)NCC1=O [Compound 120],"Rice Blast (RB) protectant fungicide data, percent control",Pyricularia oryzae,80 percent control
same,"Cucumber Powdery Mildew (CPM) protectant fungicide data, percent control",Sphaerotheca fuliginea,0 percent control
CCCCN1N=C(C)NC(c2cccc(OC)c2)C1=O (stereo not drawn) [Compound 80],"Rice Blast (RB) protectant fungicide data, percent control",Pyricularia oryzae,0 percent control
same,"Cucumber Powdery Mildew (CPM) protectant fungicide data, percent control",Sphaerotheca fuliginea,50 percent control
CCOC(=O)Cn1nc(-c2ccc(Cl)cc2)ncc1=O [Compound 250],"Rice Blast (RB) protectant fungicide data, percent control",Pyricularia oryzae,90 percent control
same,"Cucumber Powdery Mildew (CPM) protectant fungicide data, percent control",Sphaerotheca fuliginea,50 percent control
"CC(=O)CC1NC(c2ccc(Cl)cc2)=NN(CC(F)(F)F)C1=O (stereo not drawn) [Compound 20, 1-(2,2,2-Trifluorethyl)-3-(4-chlorophenyl)-5-(2-propanone)-4,5-dihydro-1,2,4-triazin-6-one]","Rice Blast (RB) protectant fungicide data, percent control",Pyricularia oryzae,50 percent control
same,"Cucumber Powdery Mildew (CPM) protectant fungicide data, percent control",Sphaerotheca fuliginea,75 percent control
O=C1CNC(c2ccc3ccccc3c2)=NN1 [Compound 124],"Rice Blast (RB) protectant fungicide data, percent control",Pyricularia oryzae,75 percent control
same,"Cucumber Powdery Mildew (CPM) protectant fungicide data, percent control",Sphaerotheca fuliginea,0 percent control
Cc1ccc(C2=NN(CC(F)(F)F)C(=O)CN2)cc1Cl [Compound 293],"Rice Blast (RB) protectant fungicide data, percent control",Pyricularia oryzae,100 percent control
same,"Cucumber Powdery Mildew (CPM) protectant fungicide data, percent control",Sphaerotheca fuliginea,50 percent control
N#CCn1nc(-c2ccc(Cl)cc2)ncc1=O [Compound 264],"Rice Blast (RB) protectant fungicide data, percent control",Pyricularia oryzae,50 percent control
same,"Cucumber Powdery Mildew (CPM) protectant fungicide data, percent control",Sphaerotheca fuliginea,0 percent control
CCCCN1N=C(C)NC(c2ccccc2)C1=O (stereo not drawn) [Compound 92],"Rice Blast (RB) protectant fungicide data, percent control",Pyricularia oryzae,0 percent control
same,"Cucumber Powdery Mildew (CPM) protectant fungicide data, percent control",Sphaerotheca fuliginea,50 percent control
Cc1cccc(N2N=C(c3ccc(-c4ccccc4)cc3)NCC2=O)c1 [Compound 186],"Rice Blast (RB) protectant fungicide data, percent control",Pyricularia oryzae,85 percent control
same,"Cucumber Powdery Mildew (CPM) protectant fungicide data, percent control",Sphaerotheca fuliginea,0 percent control
CCCCN1N=C(C)NC(c2ccc(F)c(C)c2)C1=O (stereo not drawn) [Compound 94],"Rice Blast (RB) protectant fungicide data, percent control",Pyricularia oryzae,0 percent control
same,"Cucumber Powdery Mildew (CPM) protectant fungicide data, percent control",Sphaerotheca fuliginea,75 percent control
CCCCN1N=C(c2ccccc2OC)NCC1=O [Compound 195],"Rice Blast (RB) protectant fungicide data, percent control",Pyricularia oryzae,99 percent control
same,"Cucumber Powdery Mildew (CPM) protectant fungicide data, percent control",Sphaerotheca fuliginea,50 percent control
O=C1CNC(c2ccc(F)c(F)c2)=NN1Cc1ccccc1 [Compound 139],"Rice Blast (RB) protectant fungicide data, percent control",Pyricularia oryzae,99 percent control
same,"Cucumber Powdery Mildew (CPM) protectant fungicide data, percent control",Sphaerotheca fuliginea,50 percent control
O=C1CN(CCCl)C(c2cc(Cl)cc(Cl)c2)=NN1CC(F)(F)F [Compound 126],"Rice Blast (RB) protectant fungicide data, percent control",Pyricularia oryzae,50 percent control
same,"Cucumber Powdery Mildew (CPM) protectant fungicide data, percent control",Sphaerotheca fuliginea,0 percent control
C=C(Cl)CN1N=C(c2cc(Cl)cc(Cl)c2)NCC1=O [Compound 65],"Rice Blast (RB) protectant fungicide data, percent control",Pyricularia oryzae,95 percent control
same,"Cucumber Powdery Mildew (CPM) protectant fungicide data, percent control",Sphaerotheca fuliginea,50 percent control
O=C1CN(CC2CC2)C(c2cccc(F)c2)=NN1CC1CC1 [Compound 222],"Rice Blast (RB) protectant fungicide data, percent control",Pyricularia oryzae,0 percent control
same,"Cucumber Powdery Mildew (CPM) protectant fungicide data, percent control",Sphaerotheca fuliginea,50 percent control
O=C1CNC(c2cccc(Br)c2)=NN1CC(F)(F)F [Compound 212],"Rice Blast (RB) protectant fungicide data, percent control",Pyricularia oryzae,98 percent control
same,"Cucumber Powdery Mildew (CPM) protectant fungicide data, percent control",Sphaerotheca fuliginea,85 percent control
CCCCN1N=C(c2ccc(-c3ccc(C4=NN(CCCC)C(=O)CN4)cc3)cc2)NCC1=O [Compound 231],pest or weed control at 300 g/ha,Pyricularia oryzae,85%
same,pest or weed control at 300 g/ha,Sphaerotheca fuliginea,0%
CCCCCn1nc(-c2cc(Cl)c(C)c(Cl)c2)ncc1=O [Compound 257],"Rice Blast (RB) protectant fungicide data, percent control",Pyricularia oryzae,95 percent control
same,"Cucumber Powdery Mildew (CPM) protectant fungicide data, percent control",Sphaerotheca fuliginea,50 percent control
O=c1cnc(-c2ccc(F)c(Br)c2)nn1CC(F)(F)F [Compound 290],"Rice Blast (RB) protectant fungicide data, percent control",Pyricularia oryzae,100 percent control
same,"Cucumber Powdery Mildew (CPM) protectant fungicide data, percent control",Sphaerotheca fuliginea,50 percent control
O=C1CNC(c2ccccc2)=NN1 [Compound 32],"Rice Blast (RB) protectant fungicide data, percent control",Pyricularia oryzae,75 percent control
same,"Cucumber Powdery Mildew (CPM) protectant fungicide data, percent control",Sphaerotheca fuliginea,50 percent control
O=C1CNC(C2CCCCC2)=NN1CC(F)(F)F [Compound 45],"Rice Blast (RB) protectant fungicide data, percent control",Pyricularia oryzae,75 percent control
same,"Cucumber Powdery Mildew (CPM) protectant fungicide data, percent control",Sphaerotheca fuliginea,0 percent control
CCCCN1N=C(C)NC(c2c(C)cc(C)cc2C)C1=O (stereo not drawn) [Compound 82],"Rice Blast (RB) protectant fungicide data, percent control",Pyricularia oryzae,0 percent control
same,"Cucumber Powdery Mildew (CPM) protectant fungicide data, percent control",Sphaerotheca fuliginea,25 percent control
CCCOc1ccc(C2=NN(CC(F)(F)F)C(=O)CN2)cc1 [Compound 145],"Rice Blast (RB) protectant fungicide data, percent control",Pyricularia oryzae,90 percent control
same,"Cucumber Powdery Mildew (CPM) protectant fungicide data, percent control",Sphaerotheca fuliginea,0 percent control
CCCCN1N=C(c2cc(Cl)cc(Cl)c2)N(C(=O)Oc2ccccc2)CC1=O [Compound 194],"Rice Blast (RB) protectant fungicide data, percent control",Pyricularia oryzae,80 percent control
same,"Cucumber Powdery Mildew (CPM) protectant fungicide data, percent control",Sphaerotheca fuliginea,0 percent control
CCCCCN1N=C(c2cc(Cl)c(C)c(Cl)c2)NCC1=O [Compound 49],"Rice Blast (RB) protectant fungicide data, percent control",Pyricularia oryzae,95 percent control
same,"Cucumber Powdery Mildew (CPM) protectant fungicide data, percent control",Sphaerotheca fuliginea,75 percent control
CCCCN1N=C(C)NC(c2ccc(OC)cc2)C1=O (stereo not drawn) [Compound 79],"Rice Blast (RB) protectant fungicide data, percent control",Pyricularia oryzae,75 percent control
same,"Cucumber Powdery Mildew (CPM) protectant fungicide data, percent control",Sphaerotheca fuliginea,50 percent control
"O=C1CNC(c2ccc(F)c(Cl)c2)=NN1CC(F)(F)F [Compound 1, 1-(2,2,2-trifluoroethyl)-3-(3-chloro-4-fluorophenyl)-4,5-dihydro-1,2,4-triazin-6-one]",pest or weed control at 300 g/ha,Pyricularia oryzae,99%
same,pest or weed control at 300 g/ha,Sphaerotheca fuliginea,80%
C=COC(=O)N1CC(=O)N(CCCC)N=C1c1cccc(Cl)c1Cl [Compound 136],"Rice Blast (RB) protectant fungicide data, percent control",Pyricularia oryzae,100 percent control
same,"Cucumber Powdery Mildew (CPM) protectant fungicide data, percent control",Sphaerotheca fuliginea,80 percent control
CCOC(=O)CN1N=C(c2cccc(C)c2)NCC1=O [Compound 165],"Rice Blast (RB) protectant fungicide data, percent control",Pyricularia oryzae,80 percent control
same,"Cucumber Powdery Mildew (CPM) protectant fungicide data, percent control",Sphaerotheca fuliginea,0 percent control
Cc1c(Cl)cc(C2=NN(CC(F)(F)F)C(=O)CN2)cc1Cl [Compound 47],"Rice Blast (RB) protectant fungicide data, percent control",Pyricularia oryzae,100 percent control
same,"Cucumber Powdery Mildew (CPM) protectant fungicide data, percent control",Sphaerotheca fuliginea,80 percent control
Cc1ccccc1C1=NN(CC(F)(F)F)C(=O)C(O)N1 (stereo not drawn) [Compound 105],"Rice Blast (RB) protectant fungicide data, percent control",Pyricularia oryzae,85 percent control
same,"Cucumber Powdery Mildew (CPM) protectant fungicide data, percent control",Sphaerotheca fuliginea,75 percent control
CCOc1ccc(-c2ncc(=O)n(-c3ccc(Cl)cc3)n2)cc1 [Compound 274],"Rice Blast (RB) protectant fungicide data, percent control",Pyricularia oryzae,85 percent control
same,"Cucumber Powdery Mildew (CPM) protectant fungicide data, percent control",Sphaerotheca fuliginea,0 percent control
